Measurements reported in PubChem BioAssay AID1996.
≈ marks a conversion by molar mass, not a printed value.

Details: buffer; pH 7.4; 200.0 µM

SMILES | solubility kinetic [µg/mL]
O=C(CN1C(=O)COc2ccc(Cl)cc21)NC1CC1 | > 42.1
Cc1cccc(C(C)C)c1NC(=O)c1cc2ccccc2o1 | 6.1 (≈ 20.8 µM)
Cn1cc(S(=O)(=O)NC2CCCC2)c(=O)n(C)c1=O | > 43.1
O=Cc1ccccc1OCCCOc1cccc2cccnc12 | 9.7 (≈ 31.6 µM)
COc1ccc(S(=O)(=O)N2CC(=O)Nc3ccccc32)cc1F | > 50.5
COCCCn1c(=O)c2sccc2n(Cc2cccc(C)c2)c1=O | 15.1 (≈ 43.8 µM)
Cc1oc(C(C)(C)C)c(CN2CCOCC2)c1C(=O)O.Cl | > 47.7
Cc1ccc(C(=O)N/C(=C/c2ccco2)C(=O)N2CCC(C)CC2)cc1 | > 52.9
COc1ccccc1CCNC(=O)C1(C)CC1(Cl)Cl (stereo not given) | > 45.3
CCn1c(C)nc([N+](=O)[O-])c1C(=O)O | > 29.9
O=C1CCN(S(=O)(=O)c2ccc(Cl)cc2)CC1 | > 41.1
O=C(CSc1nccc(=O)[nH]1)NCc1ccc(Cl)cc1 | > 46.5
O=C(Cn1c(=O)oc2ccccc21)Nc1ccc(F)cc1 | 21.8 (≈ 76.2 µM)
Cc1cc(C(=O)OCC(=O)Nc2ccc(F)cc2)c(C)n1C1CC1 | 6.2 (≈ 18.8 µM)
CCCN(CCC)S(=O)(=O)c1cc2c3c(c1)CCN3C(=O)CC2 | > 50.5
Oc1ccc(-c2cn3ccccc3n2)cc1O | 24 (≈ 106 µM)
CCn1nc(C(=O)NNC(=O)C(Cc2ccccc2)NC(N)=O)c2ccccc2c1=O (stereo not given) | > 63.4
CCC(C)Nc1nc(N)c([N+](=O)[O-])c(Nc2cc(OC)ccc2OC)n1 (stereo not given) | 1.2 (≈ 3.31 µM)
O=C(COc1ccc(Cl)cc1)Nc1ccc2oc(=O)ccc2c1 | < 0.7
CN(C)c1nc(N)c([N+](=O)[O-])c(NCC2CCCO2)n1 (stereo not given) | 40.5 (≈ 143 µM)
CCOC(=O)C1CCN(C(=O)c2cc3cc(C)ccc3[nH]2)CC1 | 37 (≈ 118 µM)
Cc1cccc(N2C(=O)C3C4C=CC(CC4)C3C2=O)c1 (stereo not given) | 33.5 (≈ 125 µM)
CS(=O)(=O)N(CC(=O)Nc1ccc(Br)cc1F)C1CCCCC1 | > 61.1
Cc1cccc(NC(=O)Nc2c(C)[nH]c(=O)[nH]c2=O)c1C | 5.2 (≈ 18 µM)

SMILES | solubility kinetic [µg/mL]
COC(=O)c1sccc1NC(=O)CSCCc1ccccn1 | > 50.5
COc1cccc(OCC(O)CNC2CCCC2)c1.Cl (stereo not given) | > 45.3
CC1CCCCC1N=C1NC(C)(C)CS1 (stereo not given) | > 34
Cc1ccccc1CN1CCN(CC(=O)NCc2ccccc2)CC1 | > 50.6
O=S(=O)(Nc1ccc2c(c1)OCCO2)c1c(F)cccc1F | 47.8 (≈ 146 µM)
O=C(CN1C(=O)NC2NC(=O)NC21)N/N=C/c1ccccc1O (stereo not given) | > 47.7
CSc1ncccc1C(=O)NC(C)CCc1ccccc1 (stereo not given) | 11.9 (≈ 39.6 µM)
CCOC(=O)C1CNc2cc(S(=O)(=O)CC)ccc2O1 (stereo not given) | > 44.9
COc1ccccc1N1C(=O)C=C(Sc2nc(C)cc(C)n2)C1=O | 9.1 (≈ 26.7 µM)
O=C(O)C1CCCCC1C(=O)NCCc1ccc(F)cc1 (stereo not given) | > 44
O=C(O)CCc1ccc(-c2ccccc2)n1-c1ccc(C(=O)O)cc1 | 47 (≈ 140 µM)
CCOC(=O)N1CCN(c2ccc(S(=O)(=O)N3CCOCC3)cn2)CC1 | 47 (≈ 122 µM)
Cc1ccc(NC(=O)CC(=O)Nc2ccc(C)c(C)c2)cc1C | < 0.3
CC1CC(C)CN(CC(=O)c2cccs2)C1 (stereo not given) | 30.8 (≈ 130 µM)
O=C(NCc1ccncc1)C(=O)NC1CC1 | > 32.9
Cc1ccccc1C(=O)Nc1ccnc(-c2ccncc2)n1 | 0.5 (≈ 1.72 µM)
O=C(O)CCNc1ccc(Cl)cc1 | > 29.9
CS(=O)(=O)N1CCC(C(=O)Nc2cccc([N+](=O)[O-])c2)CC1 | 44.3 (≈ 135 µM)
Cl.NC(N)=NC(N)=NCCc1ccccc1 | > 36.3
Cc1nc(SCC(=O)O)c(C#N)c2c1CCCC2 | > 39.3
COc1ccc(C(=O)N2CCCN(C)CC2)c(OC)c1 | 36.5 (≈ 131 µM)
Clc1nc(-c2ccccc2)ncc1Oc1ccccc1 | < 0.3
O=C(Nc1nc(-c2cccnc2)cs1)c1ccccc1F | < 0.2
CCOc1ccc(Cl)cc1S(=O)(=O)NCc1ccccn1 | > 49

SMILES | solubility kinetic [µg/mL]
COc1cc(CNCc2ccccc2)cc(Cl)c1OC.Cl | 48.2
Cc1ccc(C(=O)NCCC(=O)Nc2ccccc2C)cc1 | > 44.5
Cc1ccc(C(=O)N2C3=C(CCCC3)C(=O)NC23CCCCC3)cc1 | 2.1 (≈ 6.2 µM)
COc1ccc(-c2cnc(N)nc2-c2ccc(OC)cc2)cc1 | 2.8 (≈ 9.11 µM)
Oc1ccc(Cl)cc1CNc1nccs1 | 13.9 (≈ 57.7 µM)
C=CCOn1c(=O)c(-c2ccc(OCC)cc2)[n+]([O-])c2ccccc21 | 6.3 (≈ 18.6 µM)
CC(=O)c1ccccc1NC(=O)CSc1nc2ccccc2c(=O)n1CCCN1CCOCC1 | 1.8 (≈ 3.75 µM)
Clc1ccc(N2CCN(Cc3ccc(Br)o3)CC2)cc1 | 1.4 (≈ 3.94 µM)
CN(C(=O)c1cc2ccccc2o1)c1c(N)n(Cc2ccccc2)c(=O)[nH]c1=O | > 58.6
Cc1ccc(-c2noc(CCC(=O)NC3CC3)n2)cc1 | > 40.7
Cc1cc(=O)c(C(=O)O)nn1-c1ccccc1Cl | > 39.7
O=C1Nc2ccccc2C(=O)N2CCCCC12 (stereo not given) | 19.3 (≈ 83.8 µM)
CCOC(=O)C1(Cc2ccc(Cl)cc2)CCN(C2CCC2)CC1 | 44 (≈ 131 µM)
O=c1c2sc(-c3ccccc3)cc2nc2n1CCCCC2 | 29.5 (≈ 99.5 µM)
Cn1c(=O)c2c(nc(Cl)n2CCOc2ccccc2)n(C)c1=O | 6.7 (≈ 20 µM)
CC(=O)c1ccc(-c2ccc(C(=O)NCC(c3ccco3)N(C)C)o2)cc1 (stereo not given) | > 55
COc1ccc(CNC(=S)NCc2ccc(F)cc2)cc1OC | > 50.2
Cc1ccc(S(=O)(=O)N2CCC(C)CC2)cc1 | 28.6 (≈ 113 µM)
CCOc1cc(N2CCOCC2)c(OCC)cc1NC(=O)COC(=O)c1ccc([N+](=O)[O-])o1 | > 69.5
COc1cc2nc(CN3CCN(S(=O)(=O)c4cc(C)ccc4C)CC3)[nH]c(=O)c2cc1OC | 9.7 (≈ 20.5 µM)
CC1CCCC(NC(=O)Cn2c(Cl)nc3c2c(=O)n(C)c(=O)n3C)C1C (stereo not given) | > 57.3
CN(C)CCN(Cc1cccs1)c1ccccn1.Cl | > 44.7
COc1ccc(CNc2nc3ccccc3n2C(C)C)cc1 | 5.7 (≈ 19.3 µM)
CCc1c(C)nc(SC/C=C/c2ccccc2)[nH]c1=O | 1.4 (≈ 4.89 µM)

SMILES | solubility kinetic [µg/mL]
Cn1c(C(=O)N[C@@H](Cc2ccccc2)C(=O)O)cc2cc(F)ccc21 | > 51.1
O=C(NC(=S)Nc1cccc2ncccc12)c1ccccc1 | 2.7 (≈ 8.78 µM)
Cc1cccc2cc(C#N)c(N3CCOCC3)nc12 | 1.7 (≈ 6.71 µM)
CCNS(=O)(=O)c1ccc(CCC(=O)NCc2cccnc2)cc1 | 35.6 (≈ 102 µM)
O=C(NS(=O)(=O)c1ccc(Cl)cc1)c1ccccc1 | 26.7 (≈ 90.3 µM)
Cn1c(O)c(C=NC2CCN(Cc3ccccc3)CC2)c(=O)[nH]c1=O | > 51.4
CCOC(=O)C1(CC2CC2)CCN(S(=O)(=O)/C=C/c2ccccc2)CC1 | 3.6 (≈ 9.54 µM)
OC(CNCc1ccccc1)c1ccccc1 (stereo not given) | > 34.1
S=c1[nH]cc(-c2ccccc2)[nH]1 | > 26.4
CN(C)/C=N/c1nc(-c2ccc3ccccc3c2)cs1 | 16 (≈ 56.9 µM)
COc1ccccc1CNC(=O)CN(C)CC(=O)Nc1ccc(F)c(F)c1F | > 59.3
Cc1ccc(NC(=O)COc2ccc(C(=O)c3ccccc3)cc2)c(O)c1 | 2.8 (≈ 7.75 µM)
O=[N+]([O-])c1ccccc1S(=O)(=O)NCCSc1ccccc1 | 16.5 (≈ 48.8 µM)
O=C1c2cccc3c(O)ccc(c23)C(=O)N1c1ccc(Cl)cc1 | 16.2 (≈ 50 µM)
COc1ccc(Nc2oc(-c3ccccc3)nc2C#N)cc1 | 0.5 (≈ 1.72 µM)
Nc1cc(=O)[nH]c(SCC(=O)Nc2ccc(N3CCOCC3)cc2)n1 | > 54.2
COCCNC(=S)N1CCN(Cc2ccc3c(c2)OCO3)CC1 | 47 (≈ 139 µM)
O=C(NCc1ccc(F)cc1)c1cnccn1 | > 34.7
Cc1cc(Nc2ccc(C(=O)N3CCCCC3)cc2)c2cccc(C)c2n1 | 4.8 (≈ 13.4 µM)
O=C(c1ccccc1)N1CCn2c1nc1ccccc12 | 9.2 (≈ 34.9 µM)
Cc1ccc(S(=O)(=O)CCc2nc3ccccc3[nH]2)cc1 | > 45.1
C/C(=C\C(=O)c1ccc(Cl)cc1Cl)N(C)C | 3.8 (≈ 14.7 µM)
CS(=O)(=O)N1CCC(C(=O)Nc2cccc(F)c2)CC1 | > 45.1
COc1ccccc1N1C(=O)C(Cl)=C(N2CCCC2)C1=O | 9.4 (≈ 30.6 µM)

SMILES | solubility kinetic [µg/mL]
Cc1ccc(NC(=O)Nc2cc(C)on2)cc1 | 12.8 (≈ 55.4 µM)
c1ccc(-c2cc(NCCN3CCCCC3)c3ccccc3n2)cc1 | > 49.7
Cc1c(C(=O)Nc2nccs2)oc2ccc(Br)cc12 | 2 (≈ 5.93 µM)
COC(=O)[C@H](Cc1ccccc1)NC(=O)N(C)Cc1ccccc1 | > 49
Cc1ccc(OCCCCN2CCCCC2)c(C)c1 | 19.6 (≈ 75 µM)
COCCn1c(SCC(=O)Nc2ccc3[nH]c(=O)[nH]c3c2)nc2ccccc21 | 19.4 (≈ 48.8 µM)
CCCc1c(C)nc(N2CCN(c3ccccc3OC)CC2)[nH]c1=O | 2.5 (≈ 7.3 µM)
O=C(NC(=S)NNC(=O)c1ccco1)c1ccc(F)cc1 | > 46.1
COc1ccc(NC(=S)NCCc2ccccc2)c(C)c1 | 8.5 (≈ 28.3 µM)
CNC(=O)c1c(NC(=O)c2cccc(C)c2)sc2c1CCC2 | 0.4 (≈ 1.27 µM)
O=C(NCCCN1CCOCC1)c1ccc(Cl)cc1Cl | > 47.6
COc1ccc(/C(N)=N/OC(=O)CCC2CCCC2)cc1 | 4.2 (≈ 14.5 µM)
COc1cccc(/C=C/C(=O)N2CCN(c3ccccn3)CC2)c1 | > 48.5
CC(=O)N1Cc2ccccc2CC1C(=O)N1CCN(c2ccccc2)CC1 (stereo not given) | 43.5 (≈ 120 µM)
O=C(O)CCCCCNS(=O)(=O)c1ccc2c(c1)OCCO2 | > 49.4
COc1ccc(Br)cc1/C=C/C(=O)NCC(=O)O | > 47.1
Cc1ccccc1-c1noc(-c2ccccc2C(=O)NCC2CCCO2)n1 (stereo not given) | 49.6 (≈ 136 µM)
O=[N+]([O-])c1ccc(N2CCCCC2)nc1 | 29.2 (≈ 141 µM)
Brc1ccc(OCCCCN2CCCCC2)cc1 | 40.7 (≈ 130 µM)
CCOc1ccc(C(=O)n2cc(C(=O)OC)c3ccccc32)cc1OCC | 3.9 (≈ 10.6 µM)
COc1ccccc1C(=O)O/N=C(\c1ccccc1)c1ccncc1 | 34 (≈ 102 µM)
O=C(Nc1cccc2cccnc12)c1ccccc1Br | 0.4 (≈ 1.22 µM)
CCc1ccc(OCC2NCCc3cc(OC)c(OC)cc32)cc1 (stereo not given) | > 49.1
CC(=O)Nc1c(-c2ccc3ccccc3c2)nc2ccccn12 | 10.7 (≈ 35.5 µM)
